This is an account of results in ChEMBL document CHEMBL1908284, “Rational use of in vitro P-glycoprotein assays in drug discovery” (J Pharmacol Exp Ther, 2001).

Starred links: 1 amine or outer side, 2 acyl side, 3 side chain; linkers in the order of their positions; H or OH if unused. Positions of bridges follow the written chain, without caps; N, C: chain ends. Non-standard residues stand in square brackets, D forms with d. Residues, ends and D or L forms follow the SMILES beside them. Chains are numbered I, II in the order given. Actinocin(9to1) = Cc1c2oc3c(C)ccc(C(=O)[*:1])c3nc-2c(C(=O)[*:2])c(N)c1=O; NMeV = CN[C@H](C(=O)O)C(C)C; Sar = CNCC(=O)O

What is called Papp B→A is the apparent permeability from the basolateral to the apical side of a cell layer. What is called efflux ratio is a quotient of directional permeabilities that is used to spot active efflux. Usually Papp A→B stands for the apparent permeability from the apical to the basolateral side of a cell layer. Read a high Papp A→B as ready permeation.

In series [1] the target is T1, ATP-dependent translocase ABCB1 (MDR1) (Homo sapiens, UniProt P08183). As to the kind of experiment: in vitro. The note with it: dog.
T1 sequence (P08183 whole entry): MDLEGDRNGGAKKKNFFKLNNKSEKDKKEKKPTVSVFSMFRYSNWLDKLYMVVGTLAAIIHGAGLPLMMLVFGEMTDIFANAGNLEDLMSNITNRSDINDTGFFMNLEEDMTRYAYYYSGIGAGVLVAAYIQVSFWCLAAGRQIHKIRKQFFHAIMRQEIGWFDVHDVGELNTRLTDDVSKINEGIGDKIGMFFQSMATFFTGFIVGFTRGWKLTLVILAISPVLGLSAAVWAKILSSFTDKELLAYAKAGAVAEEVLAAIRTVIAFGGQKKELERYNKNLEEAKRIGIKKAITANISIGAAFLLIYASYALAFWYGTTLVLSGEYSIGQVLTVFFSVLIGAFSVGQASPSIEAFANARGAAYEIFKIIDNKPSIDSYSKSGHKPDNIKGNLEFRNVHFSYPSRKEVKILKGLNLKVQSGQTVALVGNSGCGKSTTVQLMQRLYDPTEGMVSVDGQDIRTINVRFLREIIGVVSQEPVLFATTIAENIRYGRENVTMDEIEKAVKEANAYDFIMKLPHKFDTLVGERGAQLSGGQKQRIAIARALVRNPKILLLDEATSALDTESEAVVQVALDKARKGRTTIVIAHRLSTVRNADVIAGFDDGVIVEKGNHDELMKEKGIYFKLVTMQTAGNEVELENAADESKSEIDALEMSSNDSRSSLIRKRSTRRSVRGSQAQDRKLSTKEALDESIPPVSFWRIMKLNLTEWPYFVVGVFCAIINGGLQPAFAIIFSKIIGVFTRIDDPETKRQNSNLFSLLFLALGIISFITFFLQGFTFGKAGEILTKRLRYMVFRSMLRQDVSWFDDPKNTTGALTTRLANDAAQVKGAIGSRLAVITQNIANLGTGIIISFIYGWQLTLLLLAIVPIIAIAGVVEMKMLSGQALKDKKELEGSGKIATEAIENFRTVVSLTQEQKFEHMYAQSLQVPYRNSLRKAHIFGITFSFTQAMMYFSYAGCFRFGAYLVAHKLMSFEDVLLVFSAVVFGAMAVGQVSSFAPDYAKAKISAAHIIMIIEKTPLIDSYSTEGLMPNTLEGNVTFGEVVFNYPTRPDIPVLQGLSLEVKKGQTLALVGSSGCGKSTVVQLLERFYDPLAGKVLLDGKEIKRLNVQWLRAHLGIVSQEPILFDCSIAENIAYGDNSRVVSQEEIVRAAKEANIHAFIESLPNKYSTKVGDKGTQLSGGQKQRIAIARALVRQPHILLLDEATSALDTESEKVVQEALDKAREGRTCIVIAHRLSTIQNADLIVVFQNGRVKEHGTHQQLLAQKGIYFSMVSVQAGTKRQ
Description: Apparent permeability (Papp) from basolateral to apical side determined in MDR1-MDCKII cells
Series [2] addresses T1, ATP-dependent translocase ABCB1 (MDR1). Kind of series: in vitro. The note with it: dog. The source holds these as a separate data set.
Description: Ratio of apparent permeability from basolateral to apical side over apical to basolateral side determined in MDR1-MDCKII cells
For series [3] the target is unchanged. Kind of series: in vitro. The note with it: dog. The source holds these as a separate data set.
Description: Apparent permeability (Papp) from apical to basolateral side determined in MDR1-MDCKII cells
In series [4] the target is T2, ATP-dependent translocase ABCB1 (Homo sapiens, UniProt P08183). Kind of series: TP_TRANSPORTER: ATP hydrolysis in MDR1-expressing Sf9 cells. Type of series: functional.
T2 sequence (P08183 whole entry): as above
Series [5] concerns the target T2, ATP-dependent translocase ABCB1. The note with it: spodoptera frugiperda, sf9, 20 µM.
Description: Drug-stimulated Pgp ATPase activity ratio determined in MDR1-Sf9 cell membranes with test compound at a concentration of 20uM
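For Ratio ATPase activity in this document: Compound-stimulated ATPase activity measured in membrane preparations of MDR1-expressing Sf9 cells.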

In turn, `Cc1ncc2n1-c1ccc(Cl)cc1C(c1ccccc1F)=NC2` [MIDAZOLAM] came in with a Papp B→A in series [1] (MDCK-MDR1) of 56.4 ×10⁻⁶ cm/s. In addition, the efflux ratio in series [2] (MDCK-MDR1) is 0.81. The compound also had a Papp A→B in series [3] (MDCK-MDR1) of 70.1 ×10⁻⁶ cm/s. Also, in series [4], the Activity result was “substrate [+]”. Further, in series [5], the Ratio_ATPase activity is given as 3.82.

In series [1] (MDCK-MDR1, Papp), `CC[C@H]1OC(=O)[C@H](C)[C@@H](O[C@H]2C[C@@](C)(OC)[C@@H](O)[C@H](C)O2)[C@H](C)[C@@H](O[C@@H]2O[C@H](C)C[C@H](N(C)C)[C@H]2O)[C@](C)(OC)C[C@@H](C)C(=O)[C@H](C)[C@@H](O)[C@]1(C)O` [CLARITHROMYCIN] had a basolateral-to-apical permeability (Papp B→A) of 33.6 ×10⁻⁶ cm/s. Also, the efflux ratio in series [2] (MDCK-MDR1, Ratio_Papp) came to 31.3. In series [3] (MDCK-MDR1, Papp), this compound registered an apical-to-basolateral permeability (Papp A→B) of 1.08 ×10⁻⁶ cm/s. The Activity result in series [4] was “substrate [+]”. This compound displayed a Ratio_ATPase activity in series [5] of 3.55.

As to `Cc1c2oc3c(C)ccc(C(=O)N[C@@H]4C(=O)N[C@H](C(C)C)C(=O)N5CCC[C@H]5C(=O)N(C)CC(=O)N(C)[C@@H](C(C)C)C(=O)O[C@@H]4C)c3nc-2c(C(=O)N[C@@H]2C(=O)N[C@H](C(C)C)C(=O)N3CCC[C@H]3C(=O)N(C)CC(=O)N(C)[C@@H](C(C)C)C(=O)O[C@@H]2C)c(N)c1=O` [DACTINOMYCIN] (I: T[dV]P[Sar][NMeV] / II: T[dV]P[Sar][NMeV]; ester I:1-I:C, II:1-II:C; linker I:N-II:N via Actinocin(9to1)), the Papp B→A in series [1] (MDCK-MDR1, Papp) was found to be 1.6 ×10⁻⁶ cm/s. In series [2] (MDCK-MDR1, Ratio_Papp), the efflux ratio is more than 80. The Papp A→B in series [3] (MDCK-MDR1, Papp) is less than 0.021 ×10⁻⁶ cm/s. For the same compound, the Activity result in series [4] was “is not a substrate [-]”. The same compound yielded a Ratio_ATPase activity in series [5] of 1.2.

In series [1] (MDCK-MDR1), `COc1cc2c(c(OC)c1OC)-c1ccc(OC)c(=O)cc1[C@@H](NC(C)=O)CC2` [COLCHICINE] displayed a Papp B→A of 20.2 ×10⁻⁶ cm/s. For the same compound, the efflux ratio in series [2] (MDCK-MDR1) came out at 11.3. The compound further yielded a Papp A→B in series [3] (MDCK-MDR1) of 1.79 ×10⁻⁶ cm/s. The Activity entry in series [4] was “is not a substrate [-]”. Further, in series [5], the Ratio_ATPase activity was determined as 1.23.

Compound `COC(=O)C1=C(C)NC(C)=C(C(=O)OCCN(C)Cc2ccccc2)C1c1cccc([N+](=O)[O-])c1` (configuration not stated) [NICARDIPINE] came in with a Papp B→A in series [1] (MDCK-MDR1, Papp) of 66.1 ×10⁻⁶ cm/s. For the same compound, in series [2] (MDCK-MDR1, Ratio_Papp), the efflux ratio turned out to be 1.08. For the same compound, the Papp A→B in series [3] (MDCK-MDR1, Papp) is 61.4 ×10⁻⁶ cm/s. Moreover, the Activity result in series [4] was “substrate [+]”. In addition, the Ratio_ATPase activity in series [5] is listed as 5.39.

`COc1cccc2c1C(=O)c1c(O)c3c(c(O)c1C2=O)C[C@@](O)(C(C)=O)C[C@@H]3O[C@H]1C[C@H](N)[C@H](O)[C@H](C)O1` [DAUNORUBICIN]: the Papp B→A in series [1] (MDCK-MDR1, Papp) was 7.77 ×10⁻⁶ cm/s. Moreover, in series [2] (MDCK-MDR1, Ratio_Papp), the efflux ratio was 14.2. Besides, in series [3] (MDCK-MDR1, Papp), the Papp A→B was 0.547 ×10⁻⁶ cm/s. Further, the Activity result in series [4] is “is not a substrate [-]”. In series [5], this compound displayed a Ratio_ATPase activity of 1.69.

With `CCN(CC)CCCC(C)Nc1ccnc2cc(Cl)ccc12` (configuration not stated) [CHLOROQUINE], the Papp B→A in series [1] (MDCK-MDR1, Papp) was 17.2 ×10⁻⁶ cm/s. Moreover, the efflux ratio in series [2] (MDCK-MDR1, Ratio_Papp) came to 3.83. Moreover, the Papp A→B in series [3] (MDCK-MDR1, Papp) was determined as 4.49 ×10⁻⁶ cm/s. Besides, in series [4], the Activity result was “is not a substrate [-]”. Further, in series [5], the Ratio_ATPase activity was determined as 0.77.

As for `CCOC(=O)C1=C(C)NC(C)=C(C(=O)OC)C1c1cccc([N+](=O)[O-])c1` (configuration not stated) [NITRENDIPINE], the Papp B→A in series [1] (MDCK-MDR1, Papp) was 48.3 ×10⁻⁶ cm/s. The efflux ratio in series [2] (MDCK-MDR1, Ratio_Papp) was found to be 0.8. Also, in series [3] (MDCK-MDR1, Papp), the Papp A→B came to 60.4 ×10⁻⁶ cm/s. Moreover, in series [4], the Activity entry was “substrate [+]”. The same compound gave a Ratio_ATPase activity in series [5] of 3.22.

The compound `CC(C)(C)NC(=O)[C@@H]1CN(Cc2cccnc2)CCN1C[C@@H](O)C[C@@H](Cc1ccccc1)C(=O)N[C@H]1c2ccccc2C[C@H]1O.O` yielded a Papp B→A in series [1] (MDCK-MDR1, Papp) of 17.6 ×10⁻⁶ cm/s. For the same compound, in series [2] (MDCK-MDR1, Ratio_Papp), the efflux ratio is 20.3. This compound also displayed a Papp A→B in series [3] (MDCK-MDR1, Papp) of 0.869 ×10⁻⁶ cm/s. Also, in series [4], the Activity entry was “substrate [+]”. Moreover, in series [5], the Ratio_ATPase activity turned out to be 9.59.

With `COc1cc(Cc2cnc(N)nc2N)cc(OC)c1OC` [TRIMETHOPRIM], the Papp B→A in series [1] (MDCK-MDR1, Papp) was 26.7 ×10⁻⁶ cm/s. Also, the efflux ratio in series [2] (MDCK-MDR1, Ratio_Papp) stood at 3.61. Moreover, in series [3] (MDCK-MDR1, Papp), the Papp A→B is 7.39 ×10⁻⁶ cm/s. The Activity entry in series [4] is “substrate [+]”. Moreover, in series [5], the Ratio_ATPase activity is on record as 3.61.

In series [1] (MDCK-MDR1, Papp), `COC(=O)Nc1nc2ccc(C(=O)c3ccccc3)cc2[nH]1` [MEBENDAZOLE] had a Papp B→A of 64.8 ×10⁻⁶ cm/s. In series [2] (MDCK-MDR1, Ratio_Papp), the efflux ratio worked out at 0.91. In series [3] (MDCK-MDR1, Papp), this compound had a Papp A→B of 71.4 ×10⁻⁶ cm/s. For the same compound, the Activity entry in series [4] is “substrate [+]”. Also, the Ratio_ATPase activity in series [5] was determined as 2.

Consider `COC(=O)C1=C(C)NC(C)=C(C(=O)OC)C1c1ccccc1[N+](=O)[O-]` [NIFEDIPINE], for which the Activity entry in series [4] was “substrate [+]”.

For `CCC1=C[C@@H]2CN(C1)Cc1c([nH]c3ccccc13)[C@@](C(=O)OC)(c1cc3c(cc1OC)N(C)[C@H]1[C@@](O)(C(=O)OC)[C@H](OC(C)=O)[C@]4(CC)C=CCN5CC[C@]31[C@@H]54)C2` [VINORELBINE], the Papp B→A in series [1] (MDCK-MDR1, Papp) came to 17.6 ×10⁻⁶ cm/s. Further, the efflux ratio in series [2] (MDCK-MDR1, Ratio_Papp) came to 69.8. Also, in series [3] (MDCK-MDR1, Papp), the Papp A→B turned out to be 0.252 ×10⁻⁶ cm/s. The Activity entry in series [4] was “is not a substrate [-]”. The compound also had a Ratio_ATPase activity in series [5] of 1.15.

`CN(C)CCCN1c2ccccc2Sc2ccc(Cl)cc21` [CHLORPROMAZINE] returned a Papp B→A in series [1] (MDCK-MDR1, Papp) of 47.7 ×10⁻⁶ cm/s. The efflux ratio in series [2] (MDCK-MDR1, Ratio_Papp) came out at 1.09. In series [3] (MDCK-MDR1, Papp), the Papp A→B amounted to 43.8 ×10⁻⁶ cm/s. In series [5], this compound displayed a Ratio_ATPase activity of 2.42.

The compound `CC[C@H]1C(=O)Nc2ccc(F)cc2N1C(=O)OC(C)C` [OPAVIRALINE] returned a Papp B→A in series [1] (MDCK-MDR1, Papp) of 72.6 ×10⁻⁶ cm/s. Further, the efflux ratio in series [2] (MDCK-MDR1, Ratio_Papp) turned out to be 0.96. The Papp A→B in series [3] (MDCK-MDR1, Papp) worked out at 75.8 ×10⁻⁶ cm/s. The same compound showed a Ratio_ATPase activity in series [5] of 1.02.

`Cc1c(O)cccc1C(=O)N[C@@H](CSc1ccccc1)[C@H](O)CN1C[C@H]2CCCC[C@H]2C[C@H]1C(=O)NC(C)(C)C` registered a Papp B→A in series [1] (MDCK-MDR1, Papp) of 33.8 ×10⁻⁶ cm/s. Besides, in series [2] (MDCK-MDR1, Ratio_Papp), the efflux ratio came out at 8.86. Further, the Papp A→B in series [3] (MDCK-MDR1, Papp) worked out at 3.81 ×10⁻⁶ cm/s. This compound yielded a Ratio_ATPase activity in series [5] of 5.21.

Take `CN(C)C(=O)Oc1cccc([N+](C)(C)C)c1.[Br-]` [NEOSTIGMINE BROMIDE]: the Papp B→A in series [1] (MDCK-MDR1) turned out to be 1.37 ×10⁻⁶ cm/s. In series [2] (MDCK-MDR1), the efflux ratio was found to be 1.81. The compound also returned a Papp A→B in series [3] (MDCK-MDR1) of 0.758 ×10⁻⁶ cm/s. For the same compound, the Activity entry in series [4] is “is not a substrate [-]”. The Ratio_ATPase activity in series [5] is 1.06.

Regarding `CC[C@]1(O)C[C@H]2CN(CCc3c([nH]c4ccccc34)[C@@](C(=O)OC)(c3cc4c(cc3OC)N(C=O)[C@H]3[C@@](O)(C(=O)OC)[C@H](OC(C)=O)[C@]5(CC)C=CCN6CC[C@]43[C@@H]65)C2)C1` [VINCRISTINE], the Papp B→A in series [1] (MDCK-MDR1, Papp) was 1.49 ×10⁻⁶ cm/s. In addition, the efflux ratio in series [2] (MDCK-MDR1, Ratio_Papp) is 6.31. The compound also showed a Papp A→B in series [3] (MDCK-MDR1, Papp) of 0.236 ×10⁻⁶ cm/s. The Activity entry in series [4] is “is not a substrate [-]”. Further, in series [5], the Ratio_ATPase activity worked out at 1.46.

On to `COc1ccc(C[C@H](N)C(=O)N[C@H]2[C@@H](O)[C@H](n3cnc4c(N(C)C)ncnc43)O[C@@H]2CO)cc1` [PUROMYCIN], for which, in series [1] (MDCK-MDR1, Papp), the apparent permeability from basolateral to apical (Papp B→A) turned out to be 3.56 ×10⁻⁶ cm/s. For the same compound, the efflux ratio in series [2] (MDCK-MDR1, Ratio_Papp) came out at 3.1. In addition, the Papp A→B in series [3] (MDCK-MDR1, Papp) stood at 1.15 ×10⁻⁶ cm/s. For the same compound, the Activity result in series [4] was “is not a substrate [-]”. Besides, the Ratio_ATPase activity in series [5] is 1.21.

With `CC(C)(C)NC(=O)[C@@H]1C[C@@H]2CCCC[C@@H]2CN1C[C@@H](O)[C@H](Cc1ccccc1)NC(=O)[C@H](CC(N)=O)NC(=O)c1ccc2ccccc2n1`, the Papp B→A in series [1] (MDCK-MDR1, Papp) amounted to 49.5 ×10⁻⁶ cm/s. The efflux ratio in series [2] (MDCK-MDR1, Ratio_Papp) was 165. This compound gave a Papp A→B in series [3] (MDCK-MDR1, Papp) of 0.301 ×10⁻⁶ cm/s. The Ratio_ATPase activity in series [5] was 7.11.
